Measurements reported in patent US9695155B2, “Herbicidal substituted pyrimidinyloxy benzene compounds” (E. I. DU PONT DE NEMOURS AND COMPANY, priority 2013, dated 2017).

Assays:
velvetleaf = test: Test A postemergence; assay type: in vivo, Abutilon theophrasti
How it was run: (§1)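 Greenhouse pot test, loam/sand soil. Formulation: non-phytotoxic solvent mix plus surfactant. Pre: directed spray onto soil after sowing. Post: plants at 1–2 leaf, 2–10 cm. Rated visually vs untreated controls at ~10 d, 0 (no effect) to 100 (complete control).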

Italian ryegrass = test: Test C preemergence; assay type: in vivo, Lolium multiflorum; conditions: for Ryegrass, Italian plant response rating: preemergence
From the text: (§2) Seeds of plant species selected from blackgrass (Alopecurus myosuroides), Italian ryegrass (Lolium multiflorum), wheat, winter (winter wheat, Triticum aestivum), galium (catchweed bedstraw, Galium aparine), corn (Zea mays), large (Lg) crabgrass (Digitaria sanguinalis), giant foxtail (Setaria faberii), johnsongrass (Sorghum halepense), lambsquarters (Chenopodium album), morningglory (Ipomoea coccinea), yellow nutsedge (Cyperus esculentus), pigweed (Amaranthus retroflexus), ragweed (common ragweed, Ambrosia elatior), soybean (Glycine max), barnyardgrass (Echinochloa crus-galli), oilseed rape (Brassica napus), waterhemp (common waterhemp, Amaranthus rudis), kochia (Kochia scoparia), wild oat (Avena fatua), surinam grass (Brachiaria decumbens), foxtail, green (green foxtail, Setaria viridis), goosegrass (Eleusine indica), bromegrass, downy (downy bromegrass, Bromus tectorum), nightshade (eastern black nightshade, Solanum ptycanthum), cocklebur (common cocklebur, Xanthium strumarium), cupgrass, woolly (woolly cupgrass, Eriochloa villosa), bermudagrass (Cynodon dactylon), sunflower, (common oilseed sunflower, Helianthus annuus), Russian thistle (Salsola kali), and velvetleaf (Abutilon theophrasti) were planted into a blend of loam soil and sand and treated preemergence with test chemicals formulated in a non-phytotoxic solvent mixture which included a surfactant.
(§3) At the same time, plants selected from these crop and weed species and also barley, winter (winter barley, Hordeum vulgare), windgrass (Apera spica-venti), chickweed (common chickweed, Stellaria media), deadnettle (henbit deadnettle, Lamium amplexicaule), and canarygrass (littleseed canarygrass, Phalaris minor) were planted in pots containing Redi-Earth® planting medium (Scotts Company, 14111 Scottslawn Road, Marysville, Ohio 43041) comprising spaghnum peat moss, vermiculite, wetting agent and starter nutrients and treated with postemergence applications of test chemicals formulated in the same manner. Plants ranged in height from 2 to 18 cm (1- to 4-leaf stage) for postemergence treatments. Treated plants and controls were maintained in a greenhouse for 13 to 15 days, after which time all species were compared to controls and visually evaluated. Plant response ratings, summarized in Table C, are based on a scale of 0 to 100 where 0 is no effect and 100 is complete control. A dash (-) response means no test result.

large (Lg) crabgrass = test: Test C preemergence; assay type: in vivo, Digitaria sanguinalis; conditions: for Crabgrass, Large plant response rating: preemergence
From the text: as §2, §3

pigweed = test: Test A preemergence; assay type: in vivo, Amaranthus retroflexus
How it was run: as §1

wheat = test: Test A postemergence; assay type: in vivo, Triticum aestivum
How it was run: as §1

morningglory = test: Test A preemergence; assay type: in vivo, Ipomoea spp.
How it was run: as §1

giant foxtail = test: Test A preemergence; assay type: in vivo, Setaria faberii
How it was run: as §1

barnyardgrass = test: Test B flooded paddy test; assay type: in vivo, Echinochloa crus-galli; conditions: Flood, 250 g ai/ha, 0 to 100 scale where 0 is no effect and 100 is complete control
How it was run: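 Plants were grown to the 2-leaf stage, then pots were flooded to 3 cm above the soil and compounds were applied directly into the paddy water. That depth was held throughout, and after 13 to 15 days in the greenhouse injury was rated visually against controls on a 0–100 scale (0 no effect, 100 complete control).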

wild oat = test: Test C postemergence; assay type: in vivo, Avena fatua
How it was run: (§4)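 Preemergence: seeds sown in a loam soil–sand blend and sprayed with test chemical in a non-phytotoxic solvent mixture containing surfactant. Postemergence: plants at 2 to 18 cm (1- to 4-leaf stage) in peat-based medium, treated with the same formulation. Greenhouse 13 to 15 days, then visual rating 0 (no effect) to 100 (complete control).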

blackgrass = test: Test A postemergence; assay type: in vivo, Alopecurus myosuroides; conditions: 1000 g ai/ha, 0 to 100 scale, 0 no effect, 100 complete control
How it was run: as §1

ragweed [1] = test: Test A preemergence; assay type: in vivo, Ambrosia elatior; conditions: 1000 g ai/ha, 0 to 100 scale, 0 no effect, 100 complete control, approx. 10 days
How it was run: as §1

wheat, winter = test: Test C postemergence; assay type: in vivo, Triticum aestivum
How it was run: as §4

chickweed = test: Test C postemergence; assay type: in vivo, Stellaria media; conditions: Stellaria media, post-emergence
How it was run: as §4

ragweed [2] = test: Test A postemergence; assay type: in vivo, Ambrosia elatior; conditions: 1000 g ai/ha, 0 to 100 scale, 0 no effect, 100 complete control
How it was run: as §1

kochia = test: Test C postemergence; assay type: in vivo, Kochia scoparia; conditions: Bassia scoparia, post-emergence
How it was run: as §4

[3] = 125 g ai/ha, 0 to 100 scale, 0 no effect, 100 complete control
[4] = 500 g ai/ha, 0 to 100 scale where 0 is no effect and 100 is complete control
[5] = 16 g ai/ha, scale 0 to 100 (0 no effect, 100 complete control)
[6] = 31 g ai/ha, scale 0 to 100 (0 no effect, 100 complete control)
[7] = 125 g ai/ha, scale 0 (no effect) to 100 (complete control)
[8] = Preemergence, 62 g ai/ha, scale 0 to 100, 0 no effect, 100 complete control
[9] = 31 g ai/ha, postemergence, visual rating, scale 0 to 100 (0 no effect, 100 complete control), 13 to 15 days

## NC(=S)c1cccc(Oc2ncc(Cl)cn2)c1-n1cc(Cl)cn1 [Compound 292]
velvetleaf; [3]
  Plant response rating, Velvetleaf: 70
velvetleaf; [4]
  Plant response rating, Velvetleaf: 100
Italian ryegrass; [5]
  Ryegrass, Italian plant response rating: 0
Italian ryegrass; [6]
  Ryegrass, Italian plant response rating: 0
Italian ryegrass; [7]
  Ryegrass, Italian plant response rating: 85
Italian ryegrass; [8]
  Plant response rating, Ryegrass, Italian: 10
Large (Lg) crabgrass; [5]
  Crabgrass, Large plant response rating: 100
Large (Lg) crabgrass; [6]
  Crabgrass, Large plant response rating: 100
Large (Lg) crabgrass; [7]
  Crabgrass, Large plant response rating: 100
Large (Lg) crabgrass; [8]
  Plant response rating, Crabgrass, Large: 100
pigweed; 125 g ai/ha
  Pigweed plant response rating (0 to 100 scale): 100
pigweed; [4]
  Pigweed plant response rating: 100
wheat; [3]
  Plant response rating, Wheat: 10
wheat; [4]
  Plant response rating, Wheat: 60
morningglory; 125 g ai/ha
  Morningglory plant response rating (0 to 100 scale): 30
morningglory; [4]
  Morningglory plant response rating: 90
Giant foxtail; 125 g ai/ha
  Foxtail, Giant plant response rating (0 to 100 scale): 100
Giant foxtail; [4]
  Foxtail, Giant plant response rating: 100
barnyardgrass
  Plant response rating, Barnyardgrass: 20

## Clc1cnc(Oc2ccccc2-n2cc(C3CC3)nn2)nc1 [Compound 160, 5-chloro-2-[2-(4-cyclopropyl-1H-1,2,3-triazol-1-yl)phenoxy]pyrimidine]
Wild oat; [9]
  Oat, Wild plant response rating: 0
Wild oat; Avena fatua, post-emergence, 16 g ai/ha, postemergence, 0 is no effect, 100 is complete control, read-out: Plant response rating (0 to 100), Oat, Wild
  pest or weed control at 16 g/ha: 0%
Wild oat; Avena fatua, post-emergence, 125 g ai/ha, postemergence, visual rating, scale 0 to 100 (0 no effect, 100 complete control), read-out: Plant response rating, Oat, Wild
  pest or weed control at 125 g/ha: 0%
Wild oat; Avena fatua, post-emergence, Postemergence, 62 g ai/ha, scale 0 to 100 (0 no effect, 100 complete control), read-out: Plant response rating, Oat, Wild
  pest or weed control at 62 g/ha: 0%
blackgrass
  Plant response rating, Blackgrass: 100
Ragweed [1]
  Ragweed plant response rating: 100
wheat, winter; [9]
  Wheat plant response rating: 5
wheat, winter; Triticum aestivum, post-emergence, 16 g ai/ha, postemergence, 0 is no effect, 100 is complete control, read-out: Plant response rating (0 to 100), Wheat
  plant injury at 16 g/ha: 0%
wheat, winter; Triticum aestivum, post-emergence, 125 g ai/ha, postemergence, visual rating, scale 0 to 100 (0 no effect, 100 complete control), read-out: Plant response rating, Wheat
  plant injury at 125 g/ha: 5%
wheat, winter; Triticum aestivum, post-emergence, Postemergence, 62 g ai/ha, scale 0 to 100 (0 no effect, 100 complete control), read-out: Plant response rating, Wheat
  plant injury at 62 g/ha: 5%
pigweed; Amaranthus retroflexus, pre-emergence, 240 h, 1000 g ai/ha, 0 to 100 scale, 0 no effect, 100 complete control, approx. 10 days, read-out: Pigweed plant response rating
  pest or weed control at 1000 g/ha: 100%
chickweed; 16 g ai/ha, postemergence, 0 is no effect, 100 is complete control, read-out: Plant response rating (0 to 100), Chickweed
  pest or weed control at 16 g/ha: 50%
chickweed; 31 g ai/ha, postemergence, visual rating, scale 0 to 100 (0 no effect, 100 complete control), 13 to 15 days, read-out: Chickweed plant response rating
  pest or weed control at 31 g/ha: 55%
chickweed; 125 g ai/ha, postemergence, visual rating, scale 0 to 100 (0 no effect, 100 complete control), read-out: Plant response rating, Chickweed
  pest or weed control at 125 g/ha: 70%
chickweed; Postemergence, 62 g ai/ha, scale 0 to 100 (0 no effect, 100 complete control), read-out: Plant response rating, Chickweed
  pest or weed control at 62 g/ha: 80%
wheat; Triticum aestivum, post-emergence, 240 h, 1000 g ai/ha, 0 to 100 scale, 0 no effect, 100 complete control, read-out: Plant response rating Wheat
  plant injury at 1000 g/ha: 100%
Ragweed [2]
  Plant response rating, Ragweed: 100
Giant foxtail; Setaria faberi, pre-emergence, 240 h, 1000 g ai/ha, 0 to 100 scale, 0 no effect, 100 complete control, approx. 10 days, read-out: Foxtail, Giant plant response rating
  pest or weed control at 1000 g/ha: 100%
kochia; 16 g ai/ha, postemergence, 0 is no effect, 100 is complete control, read-out: Plant response rating (0 to 100), Kochia
  pest or weed control at 16 g/ha: 85%
kochia; 31 g ai/ha, postemergence, visual rating, scale 0 to 100 (0 no effect, 100 complete control), 13 to 15 days, read-out: Kochia plant response rating
  pest or weed control at 31 g/ha: 90%
kochia; 125 g ai/ha, postemergence, visual rating, scale 0 to 100 (0 no effect, 100 complete control), read-out: Plant response rating, Kochia
  pest or weed control at 125 g/ha: 100%
kochia; Postemergence, 62 g ai/ha, scale 0 to 100 (0 no effect, 100 complete control), read-out: Plant response rating, Kochia
  pest or weed control at 62 g/ha: 98%
barnyardgrass; Echinochloa crus-galli, read-out: Plant response rating, Barnyardgrass
  pest or weed control at 250 g/ha: 35%
